This note sets out measurements from the C3SDB collision cross section collection.

For data set [1] the following is noted: instrument: DT, single field, calibrated with ESI Low Concentration Tuning Mix (Agilent).
The conditions of data set [2]: instrument: TW, calibrated with polyalanine and drug standards.

Structures are written as SMILES. Several values for one entry are separate records, joined by “and”; a condition that tells them apart may be missing. Identical values can stand only once.

For `Cn1cnc2c(ncn2[C@@H]2O[C@H](CO)[C@@H](O)[C@H]2O)c1=N` [1-METHYLADENOSINE], the “collision cross section (N2)” value was 160 Å² and 164.7 Å² in data set [1] ([M+H]+); 170.7 Å² in data set [1] ([M+Na]+); 162.7 Å² in data set [1] ([M-H]-). With `CC(=O)c1ccc(O)cc1O` [2',4'-DIHYDROXYACETOPHENONE], the “collision cross section (N2)” value stood at 127.2 Å² in data set [1] ([M+H]+) and 126.3 Å² in data set [1] ([M-H]-).

`O=c1cccc(O)[nH]1` [2,6-DIHYDROXYPYRIDINE]: the “collision cross section (N2)” value in data set [1] ([M-H]-) stood at 113.8 Å². `CC(C)(N)C(=O)O` [2-AMINOISOBUTYRATE]: the “collision cross section (N2)” value in data set [1] ([M+H]+) is recorded as 123.8 Å². As for `Nc1ccccc1O` [2-AMINOPHENOL], the “collision cross section (N2)” value in data set [1] ([M+H]+) is 118.3 Å² and 124.8 Å²; in data set [1] ([M-H]-), 118 Å². With `O=C(O)C(O)c1ccc(O)c(O)c1` (stereo not drawn) [3,4 DIHYDROXYMANDELATE], in data set [1] ([M-H]-), the “collision cross section (N2)” value was 137.4 Å².

Take `O=C(O)C1=CC(=O)[C@@H](O)[C@H](O)C1` [3-DEHYDROSHIKIMATE]: the “collision cross section (N2)” value in data set [1] ([M+Na]+) is 149.1 Å²; in data set [1] ([M-H]-), 132 Å². For the compound `OCc1cccc(O)c1` [3-HYDROXYBENZYL ALCOHOL], the “collision cross section (N2)” value in data set [1] ([M-H]-) was 122.3 Å². Turning to `CC(O)(CC(=O)O)CC(=O)O` [3-HYDROXYMETHYLGLUTARATE], the “collision cross section (N2)” value in data set [1] ([M+Na]+) is listed as 135.9 Å²; in data set [1] ([M-H]-) it was 126.5 Å². For `COc1cc(C(O)C(=O)O)ccc1O` (stereo not drawn) [3-METHOXY-4-HYDROXYMANDELATE], the “collision cross section (N2)” value in data set [1] ([M-H]-) is reported as 143.5 Å². Take `Cn1cnc(N)c2ncnc1-2` [3-METHYLADENINE]: the “collision cross section (N2)” value in data set [1] ([M+H]+) was 126.3 Å².

Regarding `Cn1cncc1CCN` [3-METHYLHISTAMINE], the “collision cross section (N2)” value in data set [1] ([M+H]+) stood at 123.8 Å². For the compound `O=C(O)/C=C/c1ccc(O)cc1` [4-COUMARATE], the “collision cross section (N2)” value in data set [1] ([M-H]-) came to 131.1 Å². With `O=C(O)Cc1cnc[nH]1` [4-IMIDAZOLEACETATE], in data set [1] ([M+H]+), the “collision cross section (N2)” value worked out at 123.9 Å². For `Cc1ncc(CO)c(C(=O)O)c1O` [4-PYRIDOXATE], the “collision cross section (N2)” value in data set [1] ([M+H]+) is recorded as 135.5 Å²; in data set [1] ([M+K]+), 147.4 Å²; in data set [1] ([M+Na]+), 150.2 Å²; in data set [1] ([M-H]-), 130.6 Å². Turning to `O=C(O)Cc1c[nH]c2ccc(O)cc12` [5-HYDROXYINDOLEACETATE], the figures for the “collision cross section (N2)” value in data set [1] ([M+H]+), in data set [1] ([M+Na]+) and in data set [1] ([M-H]-) were 140.9 Å², 148.4 Å² and 137.1 Å², respectively.

On to `NC[C@H](O)CC[C@H](N)C(=O)O` [5-HYDROXYLYSINE], for which the “collision cross section (N2)” value in data set [1] ([M+H]+) is reported as 134.9 Å²; in data set [1] ([M+Na]+), 137.5 Å²; in data set [1] ([M-H]-) it was 134 Å². As to `Cc1cnc(=O)[nH]c1N` [5-METHYLCYTOSINE], the “collision cross section (N2)” value in data set [1] ([M+H]+) is 121 Å² and 125.4 Å²; in data set [1] ([M+Na]+) it was 135.5 Å². With `Nc1ncnc2c1ncn2[C@@H]1O[C@H](COP(=O)(O)O)[C@@H](O)[C@H]1O` [ADENOSINE MONOPHOSPHATE], the “collision cross section (N2)” value in data set [1] ([M+H]+) stood at 171.4 Å²; in data set [1] ([M+Na]+), 177 Å².

For the compound `C=CC[C@@H]1/C=C(\C)C[C@H](C)C[C@H](OC)[C@H]2O[C@@](O)(C(=O)C(=O)N3CCCC[C@H]3C(=O)O[C@H](/C(C)=C/[C@@H]3CC[C@@H](O)[C@H](OC)C3)[C@H](C)[C@@H](O)CC1=O)[C@H](C)C[C@@H]2OC` [TACROLIMUS], the “collision cross section (N2)” value in data set [2] ([M+Na]+) turned out to be 267 Å². Turning to `CN1CC(=O)N2[C@H](c3ccc4c(c3)OCO4)c3[nH]c4ccccc4c3C[C@@H]2C1=O` [TADALAFIL], the “collision cross section (N2)” value in data set [2] ([M+H]+) is recorded as 188.7 Å². On to `COc1ccc(-c2cc(=O)c3c(OC)c(OC)c(OC)c(OC)c3o2)cc1` [TANGERITIN], for which the “collision cross section (N2)” value in data set [2] ([M+H]+) came to 182 Å².

For `CN1C(C(=O)Nc2ccccn2)=C(O)c2sccc2S1(=O)=O` [TENOXICAM], the “collision cross section (N2)” value in data set [2] ([M+H]+) is reported as 169.8 Å². Same read-out and setting: to `C[C@]12CC[C@H]3[C@@H](CCC4=CC(=O)CC[C@@]43C)[C@@H]1CC[C@@H]2O` [TESTOSTERONE] belongs 170.6 Å². `COc1ccc2c(c1)OC[C@@H](Cc1ccc(OC)c(OC)c1)[C@H]2O` [TETRAHYDROSAPPANONE A TRIMETHYL ETHER]: the “collision cross section (N2)” value in data set [2] ([M+H-H2O]+) worked out at 172 Å². For `c1ccc(C2CN3CCSC3=N2)cc1` (stereo not drawn) [TETRAMIZOLE], in data set [2] ([M+H]+), the “collision cross section (N2)” value stood at 144 Å².

Turning to `CN1CCN(CC/C=C2/c3ccccc3Sc3ccc(S(=O)(=O)N(C)C)cc32)CC1` [THIOTHIXENE], the “collision cross section (N2)” value in data set [2] ([M+H]+) is on record as 201.9 Å². Turning to `CCN(CC)CCOc1ccc2c(c1)C(=O)c1cc(OCCN(CC)CC)ccc1-2` [TILORONE], the “collision cross section (N2)” value in data set [2] ([M+H]+) is listed as 219.8 Å². Still for that read-out and setting: to `Clc1ccc(C(Cn2ccnc2)OCc2ccsc2Cl)c(Cl)c1` (stereo not drawn) [TIOCONAZOLE] belongs 180.7 Å²; to `Cc1ccc(S(=O)(=O)NC(=O)NN2CCCCCC2)cc1` [TOLAZAMIDE], 173.3 Å². The same measure, in the same setting: to `CCCCNC(=O)NS(=O)(=O)c1ccc(C)cc1` [TOLBUTAMIDE] belongs 161.9 Å². The same measure, in the same setting: the same measure for `CC(=O)Oc1ccc(/C=C/c2cc(OC(C)=O)cc(OC(C)=O)c2)cc1` [TRIACETYLRESVERATROL]: 171.1 Å². Take `CC1(C)O[C@@H]2C[C@H]3[C@@H]4CCC5=CC(=O)C=C[C@]5(C)[C@@]4(F)[C@@H](O)C[C@]3(C)[C@]2(C(=O)CO)O1` [TRIAMCINOLONE ACETONIDE]: in data set [2] ([M+H]+), the “collision cross section (N2)” value worked out at 197.1 Å². The same measure, in the same setting: the same measure for `Nc1nc(N)c2nc(-c3ccccc3)c(N)nc2n1` [TRIAMTERENE]: 155.4 Å²; for `CC1(C)C2C[C@@H](O)[C@]3(C)C(CC[C@@]4(C)[C@H](c5ccoc5)OC(=O)[C@H]5O[C@]543)[C@@]2(C)[C@@H](O)C[C@H]1O` (stereo partly drawn) [TRIDESACETOXYKHIVORIN]: 201.5 Å². Same read-out and setting: the same measure for `COc1cc(Cc2cnc(N)nc2N)cc(OC)c1OC` [TRIMETHOPRIM]: 171.2 Å²; for `C[C@H](CCC(=O)O)[C@H]1CC[C@H]2[C@@H]3CC[C@@H]4CCCC[C@]4(C)[C@H]3CC[C@]12C` [URSOCHOLANIC ACID]: 169.3 Å². Turning to `CCC(C)C(=O)O[C@@H]1C[C@@]2(C)[C@H](c3ccoc3)OC(=O)CC23OC2(C)O[C@]14[C@]1(C)[C@@H](CC(=O)OC)C5(C)CC1(O)[C@](O)(C5OC(=O)C1(C)OC1C)[C@@H](OC(C)=O)[C@]34O2` (stereo partly drawn) [UTILIN], the “collision cross section (N2)” value in data set [2] ([M+H]+) is recorded as 252.5 Å².

Regarding `COc1c2ccoc2cc2oc(C)cc(=O)c12` [VISNAGIN], the “collision cross section (N2)” value in data set [2] ([M+H]+) is recorded as 139.1 Å².

With `CC1(C)C=Cc2cc3ccc(=O)oc3cc2O1` [XANTHYLETIN], the “collision cross section (N2)” value in data set [2] ([M+H]+) was found to be 148.3 Å².

As for `Cc1cccc(C)c1NC1=NCCCS1` [XYLAZINE], in data set [2] ([M+H]+), the “collision cross section (N2)” value is reported as 147.8 Å². As to `COc1cc([C@@H]2c3cc4c(c(O)c3C[C@H]3COC(=O)[C@@H]32)OCO4)cc(OC)c1OC` [beta-PELTATIN], the “collision cross section (N2)” value in data set [2] ([M+H-H2O]+) was determined as 189 Å².

On to `NC(Cc1ccc(F)cc1)C(=O)O` (stereo not drawn) [p-FLUOROPHENYLALANINE], for which the “collision cross section (N2)” value in data set [2] ([M+H]+) is 141.1 Å².
